Patent US10550117B2, “2-azabicyclo[3.1.0]hexan-3-one derivatives and methods of use” (Genentech, Inc., priority 2016, dated 2020)

What was measured:
[1] = biological target: nuclear factor-kappa B (NF-kB)-inducing kinase (NIK) (Homo sapiens (Human), UniProt Q99558); assay: NIK enzyme inhibition assay (Transcreener ADP fluorescence polarization); type: biochemical; conditions: for NIK enzyme inhibition, potency in words relative to the other stereoisomers: stereoisomers separated by chiral SFC, qualitative; for Ki: purified NIK 0.5 nM, 10 μM ATP, Morrison equation, read-out: NIK ADP-FP Ki
nuclear factor-kappa B (NF-kB)-inducing kinase (NIK), sequence (Q99558 whole entry): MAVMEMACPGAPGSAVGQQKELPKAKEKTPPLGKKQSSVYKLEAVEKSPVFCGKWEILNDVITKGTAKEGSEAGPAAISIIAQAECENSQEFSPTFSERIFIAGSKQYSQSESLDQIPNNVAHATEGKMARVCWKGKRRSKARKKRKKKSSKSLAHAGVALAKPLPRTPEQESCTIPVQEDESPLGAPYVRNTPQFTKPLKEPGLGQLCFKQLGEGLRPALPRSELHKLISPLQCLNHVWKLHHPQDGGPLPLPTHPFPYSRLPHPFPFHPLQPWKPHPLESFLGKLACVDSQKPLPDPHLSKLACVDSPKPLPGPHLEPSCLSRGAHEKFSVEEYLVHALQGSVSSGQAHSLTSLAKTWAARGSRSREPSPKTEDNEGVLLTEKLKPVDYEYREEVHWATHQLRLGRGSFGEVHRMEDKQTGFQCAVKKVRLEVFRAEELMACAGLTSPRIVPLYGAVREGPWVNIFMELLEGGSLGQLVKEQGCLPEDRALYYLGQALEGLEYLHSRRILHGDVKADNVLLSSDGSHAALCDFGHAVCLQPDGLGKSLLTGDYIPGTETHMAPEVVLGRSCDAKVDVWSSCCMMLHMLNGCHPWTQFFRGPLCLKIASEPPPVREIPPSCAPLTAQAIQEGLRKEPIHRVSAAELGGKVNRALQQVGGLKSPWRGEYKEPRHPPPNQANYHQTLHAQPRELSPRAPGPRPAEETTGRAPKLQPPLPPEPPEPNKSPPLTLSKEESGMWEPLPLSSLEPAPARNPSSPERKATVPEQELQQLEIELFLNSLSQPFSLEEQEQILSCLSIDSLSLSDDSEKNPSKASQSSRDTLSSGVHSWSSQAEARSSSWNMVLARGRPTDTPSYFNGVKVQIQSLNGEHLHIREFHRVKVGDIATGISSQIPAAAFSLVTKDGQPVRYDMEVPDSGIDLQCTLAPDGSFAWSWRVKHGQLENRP
Description: The ability of the nuclear factor-kappa B (NF-kB)-inducing kinase (NIK) to catalyze the hydrolysis of adenosine-5′-triphosphate (ATP) was monitored using the Transcreener ADP (adenosine-5′-diphosphate) assay (BellBrook Labs). […] Reactions were quenched by the addition of 20 mM 2,2′,2″,2′″-(ethane-1,2-diyldinitrilo)tetraacetic acid and 0.01% Brij 35. The tracer bound to the antibody was displaced by the ADP generated during the NIK reaction, which causes a decrease in fluorescence polarization that was measured by laser excitation at 633 nm with a Fluorescence Correlation Spectroscopy Plus reader (Evotec AG). Equilibrium dissociation constant (Ki) values for NIK inhibitors are calculated from plots of activity vs. inhibitor concentration using Morrison's quadratic equation that accounts for the potential of tight binding, and by also applying the conversion factor that accounted for competitive inhibition and the concentration of substrate used in the assay relative to its Michaelis constant (Km).

[2] = Liver microsome stability; type: in vitro ADME; conditions: for HLM CL (human liver microsome clearance): human liver microsomes; for stability in human liver microsomes versus the corresponding pyrrolidinone comparator compound: qualitative comparison
Description: Metabolic stability assays in liver microsomes are conducted with pooled female CD-1 mouse, male Sprague-Dawley rat, male beagle dog, male cynomolgus monkey, and mixed male and female human liver microsomal incubations. The general assay conditions are as follows. Incubation mixtures consisted of liver microsomes (0.5 mg of microsomal protein/ml) and the test compound (1.0 μM) with or without NADPH (1.0 mM) in the potassium phosphate buffer (100 mM; pH 7.4) with a final incubation volume of 0.25 ml. Reactions are initiated by the addition of NADPH or buffer and shaken in a water bath open to the air at 37° C. At times 0, 20, 40, and 60 min, aliquots (50 μl) are removed and added to termination mixtures (100 μl) containing acetonitrile and an internal standard. The samples are then centrifuged for 10 min at 2000 g. The supernatant (90 μl) is removed, combined with 180 μl of water, and analyzed by LC-MS/MS.
Metabolic stability of the test compounds were evaluated in human liver microsomes following known protocols described in Halladay, et al. Drug Metabol. Lett. 2007, 1:67-72.

Hepatocyte stability = type: in vitro ADME; conditions: human hepatocytes
Description: General. Metabolic stability assays in hepatocytes are conducted using cryopreserved pooled female CD-1 mouse, male Sprague-Dawley rat, male beagle dog, male cynomolgus monkey, and mixed male and female human hepatocytes (CellzDirect). Vials of hepatocytes are thawed rapidly in a water bath set at 37° C. and then are diluted with Dulbecco's modified Eagle's medium (DMEM), pH 7.4. Cells are isolated by centrifugation, pooled, and resuspended in DMEM at 1.0 million viable cells/ml. Membrane integrity of the cells is assessed by trypan blue exclusion. The test compound is dissolved in dimethyl sulfoxide at a final concentration of 10 mM. This test compound stock is diluted further to 2 μM in DMEM (125 μl) before the addition of an equal volume of the 10^6 cells/ml cell suspension. The test compound (final incubation concentration of 1.0 μM with 0.1% dimethyl sulfoxide) and cells (final concentration of 0.5×10^6 cells/ml) are incubated at 37° C. in a 95% air/5% CO2 atmosphere for 3 h. Aliquots (50 μl) are removed at 0, 1, 2, and 3 hours and added to termination mixtures (100 μl) containing acetonitrile and an internal standard. The samples are then centrifuged for 10 min at 2000 g. The supernatant (90 μl) is removed, combined with 180 μl of water, and analyzed by LC-MS/MS.
Metabolic stability of the test compounds were evaluated also in human hepatocytes, following protocols described in Hallifax, et al. Drug Metabol. Disposition, 2005, 33:1852-1858.

[3] = tested on: p52 (NF-kB2) nuclear translocation in HeLa cells; assay: p52 HeLa nuclear translocation assay (anti-lymphotoxin beta receptor antibody stimulated); type: cell-based; conditions: Homo sapiens, 100 ng/mL anti-lymphotoxin beta receptor antibody
Description: (§1) (3) A third set of cell assays are used to define the selectivity of NIK inhibitors toward inhibition of classical vs. non-classical NF-kB signaling and rely on quantification of the nuclear translocation of p52 (NF-kB2) and REL-A (p65) using high content cellular imaging. For the p52 (non-classical NF-kB signaling) nuclear translocation assay, HeLa cells are treated with different concentrations of compounds (0.2% DMSO final) in medium containing 10% fetal bovine serum and then stimulated with 100 ng/mL of an anti-lymphotoxin beta receptor antibody (R&D Systems) for 5 hours. In the REL-A nuclear translocation assay, HeLa cells are incubated with compounds (0.2% DMSO final) for 4.5 hours in medium containing 10% fetal bovine serum before stimulating them with 10 ng/mL tumor necrosis factor (TNF)-α (R&D Systems) for 30 minutes. Cells are fixed with 4% paraformaldehyde, permeabilized by adding 0.1% Triton X-100 in phosphate buffered saline, and then are incubated with either 2 μg/mL anti-p52 antibody (Millipore) or 400 ng/mL anti-REL-A (p65) antibody (Santa Cruz Biotechnology). Finally, the cells are incubated with an Alexa488-labeled secondary antibody (Invitrogen) and DRAQ5 DNA stain (Biostatus). Imaging is carried out using an Opera reader (Perkin Elmer) and data are analyzed with the aid of Acapella software (Perkin Elmer). The p52 or REL-A translocation into the nucleus is quantified by the ratio of the nuclear to cytoplasmic signal intensity. […] The test compounds have the corresponding inhibitory values (IC50) for NIK REL-A (p65) and p52 Translocation Assays as set forth in Table B2.

[4] = tested on: REL-A (p65) nuclear translocation in HeLa cells; assay: REL-A HeLa nuclear translocation assay (TNF-α stimulated, high content imaging); type: cell-based; conditions: Homo sapiens, 10 ng/mL TNF-α
Description: as §1

Structure (SMILES)	NIK enzyme inhibition, potency in words relative to the other stereoisomers [1]	further results
CN1C(=O)C(O)(C#Cc2cccc(-c3nc(C(N)=O)c(N)s3)c2)C2CC21 (single isomer, unassigned) [5-amino-2-(3-((4-hydroxy-2-methyl-3-oxo-2-azabicyclo[3.1.0]hexan-4-yl)ethynyl)phenyl)thiazole-4-carboxamide]	less potent NIK enzyme inhibitor than Compound 6	
COc1ccn2c(C(N)=O)nc(-c3cccc(C#C[C@@]4(O)C(=O)N(C)[C@H]5C[C@H]54)c3)c2c1 [1-(3-(((1 S,4R,5R)-4-hydroxy-2-methyl-3-oxo-2-azabicyclo[3.1.0]hexan-4-yl)ethynyl)phenyl)-7-methoxyimidazo[1,5-a]pyridine-3-carboxamide]	second most potent NIK enzyme inhibitor among the 4 stereoisomers	
CN1C(=O)[C@](O)(C#Cc2cccc(-c3nc(C(N)=O)n4ccccc34)c2)[C@@H]2C[C@@H]21 [1-(3-(((1 S,4R,5R)-4-hydroxy-2-methyl-3-oxo-2-azabicyclo[3.1.0]hexan-4-yl)ethynyl)phenyl)imidazo[1,5-a]pyridine-3-carboxamide]	second most potent NIK enzyme inhibitor among the 4 stereoisomers	
CN1C(=O)[C@@](O)(C#Cc2cccc(-n3nc(C(N)=O)c4cccnc43)c2)[C@@H]2C[C@@H]21 [1-(3-(((1 S,4S,5R)-4-hydroxy-2-methyl-3-oxo-2-azabicyclo[3.1.0]hexan-4-yl)ethynyl)phenyl)-1H-pyrazolo[3,4-b]pyridine-3-carboxamide]	no measurable inhibition	
CN1C(=O)[C@@](O)(C#Cc2cccc(-c3nc(C(N)=O)n4ccccc34)c2)[C@@H]2C[C@@H]21 [1-(3-(((1 S,4S,5R)-4-hydroxy-2-methyl-3-oxo-2-azabicyclo[3.1.0]hexan-4-yl)ethynyl)phenyl)imidazo[1,5-a]pyridine-3-carboxamide]	no measurable inhibition	
CN1C(=O)[C@@](O)(C#Cc2cccc(-n3nc(C(N)=O)c4cccnc43)c2)[C@H]2C[C@H]21 [1-(3-(((1R,4S,5S)-4-hydroxy-2-methyl-3-oxo-2-azabicyclo[3.1.0]hexan-4-yl)ethynyl)phenyl)-1H-pyrazolo[3,4-b]pyridine-3-carboxamide]	no measurable inhibition	
COc1ccn2c(C(N)=O)nc(-c3cccc(C#C[C@]4(O)C(=O)N(C)[C@@H]5C[C@@H]54)c3)c2c1 [1-(3-(((1R,4S,5S)-4-hydroxy-2-methyl-3-oxo-2-azabicyclo[3.1.0]hexan-4-yl)ethynyl)phenyl)-7-methoxyimidazo[1,5-a]pyridine-3-carboxamide]	third most potent NIK enzyme inhibitor among the 4 stereoisomers	
CN1C(=O)[C@@](O)(C#Cc2cccc(-c3nc(C(N)=O)n4ccccc34)c2)[C@H]2C[C@H]21 [1-(3-(((1R,4S,5S)-4-hydroxy-2-methyl-3-oxo-2-azabicyclo[3.1.0]hexan-4-yl)ethynyl)phenyl)imidazo[1,5-a]pyridine-3-carboxamide]	third most potent NIK enzyme inhibitor among the 4 stereoisomers	
COc1ccn2c(C(N)=O)nc(-c3cccc(C#C[C@]4(O)C(=O)N(C)[C@H]5C[C@H]54)c3)c2c1 [1-(3-(((1S,4S,5R)-4-hydroxy-2-methyl-3-oxo-2-azabicyclo[3.1.0]hexan-4-yl)ethynyl)phenyl)-7-methoxyimidazo[1,5-a]pyridine-3-carboxamide]	no measurable inhibition	
CN1C(=O)[C@](O)(C#Cc2cccc(-c3nc(C(N)=O)c4ccccn34)c2)[C@@H]2C[C@@H]21 [3-(3-(((1 S,4R,5R)-4-hydroxy-2-methyl-3-oxo-2-azabicyclo[3.1.0]hexan-4-yl)ethynyl)phenyl)imidazo[1,5-a]pyridine-1-carboxamide]	second most potent NIK enzyme inhibitor among the 4 stereoisomers	
CN1C(=O)[C@@](O)(C#Cc2cccc(-c3nc(C(N)=O)c4ccccn34)c2)[C@@H]2C[C@@H]21 [3-(3-(((1S,4S,5R)-4-hydroxy-2-methyl-3-oxo-2-azabicyclo[3.1.0]hexan-4-yl)ethynyl)phenyl)imidazo[1,5-a]pyridine-1-carboxamide]	third most potent NIK enzyme inhibitor among the 4 stereoisomers	
COc1ccn2c(C(N)=O)nc(-c3cccc(C#C[C@@]4(O)C(=O)N(C)[C@@H]5C[C@@H]54)c3)c2c1 [Compound 4, 1-(3-(((1R,4R,5S)-4-hydroxy-2-methyl-3-oxo-2-azabicyclo[3.1.0]hexan-4-yl)ethynyl)phenyl)-7-methoxyimidazo[1,5-a]pyridine-3-carboxamide]	most potent NIK enzyme inhibitor among the 4 stereoisomers	HLM CL (human liver microsome clearance) [2]: 12 mL/min/kg; stability in human liver microsomes versus the corresponding pyrrolidinone comparator compound [2]: better stability; Ki [1]: 0.05 nM
CN1C(=O)[C@](O)(C#Cc2cccc(-c3nc(C(N)=O)c(N)s3)c2)[C@H]2C[C@H]21 [Compound 6, 5-amino-2-(3-(((1R,4R,5S)-4-hydroxy-2-methyl-3-oxo-2-azabicyclo[3.1.0]hexan-4-yl)ethynyl)phenyl)thiazole-4-carboxamide]	most potent NIK enzyme inhibitor among the 4 stereoisomers	Hep CL (human hepatocyte clearance) (Hepatocyte stability): 2.7 mL/min/kg; HLM CL (human liver microsome clearance) [2]: 1.6 mL/min/kg; stability in human liver microsomes versus the corresponding pyrrolidinone comparator compound [2]: better stability; Ki [1]: 0.05 nM
CN1CC[C@@](O)(C#Cc2cccc(-n3nc(C(N)=O)c4cccnc43)c2)C1=O [Compound C-1]		IC50 [3]: 79.5 nM; IC50 [4]: > 20000 nM
CN1CC[C@@](O)(C#Cc2cccc(-c3nc(C(N)=O)c4ccccn34)c2)C1=O [Compound C-5]		IC50 [3]: 240 nM; IC50 [4]: > 20000 nM
